In article PMC6773864, “The functional ClpXP protease of Chlamydia trachomatis requires distinct clpP genes from separate genetic loci” (Scientific Reports, 2019):
*1 amine or outer side, *2 acyl side, *3 side chain or, on linkers, in order; H or OH if unused. Where a SMILES comes first, the peptide text is derived from it. The star is where a group is joined. AMC = Cc1cc(=O)oc2cc(N*)ccc12; Suc = O=C(CCC(=O)[*:2])[*:1]

What was measured:
ctClpP1P2 [1] = target: T1, ctClpP1P2 (Chlamydia trachomatis, UniProt O84712+P38002); assay: peptidase assay, fluorescence (AMC release); assay type: biochemical; conditions: 100 µM substrate, 3 µM ClpP, no ADEP1, pH 7.6, 32 °C
T1 construct: gene clpP1; full-length, C-terminal Strep-tag on both (kept), expressed in E. coli dAPX-1 (clpP/clpX/clpA deleted), mixed 1:1; hetero-tetradecamer
T1 sequence (P38002 2-192): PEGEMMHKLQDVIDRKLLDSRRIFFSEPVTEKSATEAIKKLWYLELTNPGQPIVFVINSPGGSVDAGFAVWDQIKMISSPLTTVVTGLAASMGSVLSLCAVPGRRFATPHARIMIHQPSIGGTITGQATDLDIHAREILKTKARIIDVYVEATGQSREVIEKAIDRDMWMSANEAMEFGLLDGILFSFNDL
T1 sequence (O84712 whole entry): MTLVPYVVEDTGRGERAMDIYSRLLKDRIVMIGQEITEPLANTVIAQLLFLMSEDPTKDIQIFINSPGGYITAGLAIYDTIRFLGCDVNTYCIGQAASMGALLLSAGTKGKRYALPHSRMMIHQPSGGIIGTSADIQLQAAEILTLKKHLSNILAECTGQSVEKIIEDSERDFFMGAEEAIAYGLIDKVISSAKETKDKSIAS

ctClpP1P2 [2] = target: T1, ctClpP1P2; assay: Suc-LY-AMC peptidase assay, fluorescence (AMC release); assay type: biochemical; conditions: activator; 15 µM ADEP1, 3 µM ClpP, 100 µM Suc-LY-AMC, no ClpX, pH 7.6, 32 °C; binds preferably via ClpP2 hydrophobic pocket

Compound | peptidase assay, fluorescence (AMC release) (ctClpP1P2 [1]) | fold increase in peptidase activity at 15 μM (ctClpP1P2 [2]) [fold]
Cc1cc(=O)oc2cc(NC(=O)[C@H](Cc3ccc(O)cc3)NC(=O)[C@H](CC(C)C)NC(=O)CCC(=O)O)ccc12 [Suc-LY-AMC] (Suc-Leu-Tyr-{AMC}) | when combined, ctClpP1P2 steadily hydrolysed Suc-LY-AMC | 
ADEP1 |  | > 2.5
